Experiments:
[1] = Stability in human liver microsomes (NADPH-dependent); format: in vitro ADME; conditions: 37° C., NADPH-dependent
Experimental: The compounds were incubated in duplicate with human liver microsomes at 37° C. The reaction contained microsomal protein in 100 mM potassium phosphate, 2 mM NADPH, 3 mM MgCl2, pH 7.4. A control was run for each compound omitting NADPH to detect NADPH-independent degradation. An aliquot was removed from each experimental and control reaction at 0, 10, 20, 30, and 60 minutes and mixed with an equal volume of ice-cold Stop Solution (0.3% acetic acid in acetonitrile containing haloperidol, diclofenac, or other internal standard). Stopped reactions were incubated for at least ten minutes at −20° C., and an additional volume of water was added. The samples were centrifuged to remove precipitated protein, and the supernatants were analyzed by LCMS/MS to quantitate the remaining compound. Data were converted to percent remaining by dividing by the time zero concentration value. Data were fit to a first-order decay model to determine half-life. Intrinsic clearance was calculated from the half-life and the protein concentrations: CLint=ln(2)/(t½[microsomal protein]). […] More surprising is that eliminating the ring nitrogen in SX-517 yielded a half-life even larger than that of SX-682. The results as a whole led to no SAR predictive of the surprising stability of SX-682.

[2] = system: neutrophils; experiment: Murine air-pouch model of inflammation; format: in vivo; conditions: depending on the dose given
[3] = Stability in human plasma; format: in vitro ADME; conditions: for t½: 5 μM, 37° C., LC-MS/MS detection
Experimental: The in vitro stability of SX-682 and the congeners of Metabolic Stability Example 1 (FIG. 6) were further studied in human plasma. The reactions were initiated by the addition of 5 μl of a 500 μM DMSO stock solution to 495 μl of preheated plasma solution to yield a final concentration of 5 μM. The assays were performed in a heat block at 37° C. and conducted in duplicate. Samples (50 μl) were taken at 0, 30, 60, 120, 240 min and added to 150 μL acetonitrile in order to deproteinize the plasma. The samples were subjected to vortex mixing for 1 min and then centrifugation for 15 min at 14,000 rpm. The clear supernatants were analyzed by LC-MS.
The in vitro plasma half-life (t½) was calculated using the expression t½=ln(2)/b where b is the slope found in the linear fit of the natural logarithm of the fraction remaining of the parent compound vs. incubation time.

[4] = system: Sprague-Dawley rats; experiment: Ozone rat model of pulmonary inflammation (neutrophil influx into BALF); format: in vivo; conditions: 1 mg/kg i.v. once, 1 ppm ozone 4 hours, BALF at 24 hours
Experimental: SX-682 was assayed in an in vivo rat model of pulmonary inflammation. Activity in this model of pulmonary inflammation provides evidence that supports the use of SX-682 in the treatment of a number of pulmonary inflammatory diseases, including chronic obstructive pulmonary disease (COPD) and bronchopulmonary dysplasia (BPD). In this experiment, Sprague-Dawley rats (n=4 per cohort) were dosed intravenously only once at t=0 with either vehicle control (dimethylformamide/PEG400/saline, 40:40:20), positive inhibitor control (SX-576, 1 mg/kg) or the test compound (SX-682, 1 mg/kg). The rats were then placed in air (negative exposure group; vehicle control only) or 1 ppm ozone (positive exposure group; vehicle control, positive inhibitor control SX-576, and test compound SX-682) for 4 hours. The rats were then sacrificed at t=24 hours, and the bronchoalveolar lavage fluid (BALF) was collected. The cells were spun down, stained with Wright-Giemsa and counted. In the negative exposure group, no neutrophils were observed when stained. In the ozone exposed rats treated with vehicle however, there was a brisk influx of neutrophils of approximately 14,000 per mL of BALF (FIG. 5).

[5] = system: C3Tag mouse model of breast cancer; experiment: C3Tag mouse model of breast cancer; format: in vivo; conditions: SX-682 10 mg/day/mouse oral; carboplatin 50 mg/kg weekly i.p.; vehicle 18 days
Source text: The C31-T-antigen (C3Tag) mouse model is a validated model of human triple-negative basal cell breast cancer as shown by gene expression analysis (Maroulakou, 1994, Proc Natl Acad Sci, 91:11236-40, herein incorporated by reference). The expressed large T-antigen binds and inactivates the RB and p53 tumor suppressor genes, explaining why this model faithfully recapitulates human basal breast cancer, which also harbors RB and p53 inactivation. This model also has frequent K-Ras amplification and infrequent Ras mutations. Treatment regimens were started following tumor manifestation. SX-682 was given orally via medicated feed, at an approximate dose of 10 mg/day/mouse. CP was administered once weekly via intraperitoneal injection at a dose of 50 mg/kg.

Row | t½, half-life [1] [h] | t½ [3] [h] | reduction in plasma half-life ([3]; relative to SX-682/SX-576) [fold] | Compound | activity on neutrophils [2] | influx of neutrophils into the lungs (BALF) vs vehicle [4] | median survival, single agent [5] [days]
1 | 6.75 | 1.88 | 5 | O=C(Nc1ccc(F)cc1)c1ccc(SCc2ccccc2B(O)O)nc1 [SX-517] | both inhibitory and agonist activity on neutrophils were achieved | – | –
2 | 0.833 | 8.88 | – | O=C(Nc1ccc(F)cc1)c1ccc(SCc2cc(OC(F)(F)F)ccc2B(O)O)nc1 [SX-576] | both inhibitory and agonist activity on neutrophils were achieved | significantly decreased the influx of neutrophils | –
3 | – | – | – | N.N.O=C([O-])C1(C(=O)[O-])CCC1.[Pt+2] [carboplatin, reference compound] | – | – | 28

Reference: patent US10561676B2, “Method for treating cancer using dual antagonists of CXCR1 and CXCR2” (Syntrix Biosystems, Inc., priority 2018, dated 2020)
